Values of other authors, collected in article PMC3547157 (Journal of the American Chemical Society, 2012).
pIC50: −log10 of the molar value.

Molecular target: T1, COX-2 enzyme (Homo sapiens, UniProt P35354)
T1 sequence (P35354 18-604): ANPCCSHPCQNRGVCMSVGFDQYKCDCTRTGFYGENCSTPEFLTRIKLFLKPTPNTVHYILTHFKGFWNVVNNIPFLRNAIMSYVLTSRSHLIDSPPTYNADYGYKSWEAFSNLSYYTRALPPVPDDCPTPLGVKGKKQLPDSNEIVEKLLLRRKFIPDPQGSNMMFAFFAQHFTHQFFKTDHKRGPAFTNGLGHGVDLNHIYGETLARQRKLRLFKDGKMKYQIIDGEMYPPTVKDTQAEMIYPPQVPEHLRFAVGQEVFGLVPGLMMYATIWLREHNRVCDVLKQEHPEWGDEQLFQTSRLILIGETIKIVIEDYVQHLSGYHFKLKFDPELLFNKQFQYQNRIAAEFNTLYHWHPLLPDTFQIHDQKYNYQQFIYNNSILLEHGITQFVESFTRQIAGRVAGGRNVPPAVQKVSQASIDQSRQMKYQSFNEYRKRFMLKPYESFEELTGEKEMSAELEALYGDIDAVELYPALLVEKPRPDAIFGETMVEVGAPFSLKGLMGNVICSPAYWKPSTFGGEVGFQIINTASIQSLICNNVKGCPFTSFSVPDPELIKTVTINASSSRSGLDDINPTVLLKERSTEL
Details: read-out: reported IC50 of naproxen to COX-2; literature values

With `COc1ccc2cc([C@H](C)C(=O)O)ccc2c1` [naproxen] as the compound, how does the pIC50 read?
The pIC50 was 4.55 to 5.70.
